Test results taken from ChEMBL document CHEMBL1140860, “Synthesis and evaluation of dihydroartemisinin and dihydroartemisitene acetal dimers showing anticancer and antiprotozoal activity” (Bioorg Med Chem, 2009).

What was measured:
HUVEC [1] = test: Antiangiogenic activity against HUVEC assessed as inhibition of VEGF-induced cell migration by NCI antiangiogenesis assay; format: functional, cell-based; conditions: Homo sapiens
HUVEC [2] = test: Antiangiogenic activity against HUVEC assessed as inhibition of capillary-like structure formation by NCI antiangiogenesis assay; format: functional, cell-based; conditions: Homo sapiens
HUVEC [3] = test: Antiangiogenic activity against HUVEC assessed as growth inhibition by NCI antiangiogenesis assay; format: functional, cell-based; conditions: Homo sapiens
BT-549 = test: Growth inhibition of human BT549 cells after 48 hrs by sulforhodamine B assay; format: functional; conditions: BT-549, 48 h
SNB-19 = test: Growth inhibition of human SNB19 cells after 48 hrs by sulforhodamine B assay; format: functional; conditions: SNB-19, 48 h
HOP-92 = test: Growth inhibition of human HOP92 cells after 48 hrs by sulforhodamine B assay; format: functional; conditions: HOP-92, 48 h
NCI-H23 = test: Growth inhibition of human NCI-H23 cells after 48 hrs by sulforhodamine B assay; format: functional; conditions: NCI-H23, 48 h
[4] = Selectivity index, ratio of TC50 for african green monkey (Cercopithecus aethiops) Vero cells to IC50 for chloroquine-resistant Plasmodium falciparum W2; format: toxicity, cell-based
786-0 = test: Growth inhibition of human 786-0 cells after 48 hrs by sulforhodamine B assay; format: functional; conditions: 786-0, 48 h
ACHN = test: Growth inhibition of human ACHN cells after 48 hrs by sulforhodamine B assay; format: functional
UACC-257 = test: Growth inhibition of human UACC257 cells after 48 hrs by sulforhodamine B assay; format: functional; conditions: UACC-257, 48 h
HOP-62 = test: Growth inhibition of human HOP62 cells after 48 hrs by sulforhodamine B assay; format: functional; conditions: HOP-62, 48 h
Plasmodium falciparum [5] = test: Antimalarial activity after 72 hrs against chloroquine-sensitive Plasmodium falciparum D6 infected in erythrocytes by LDH assay; format: functional, organism-based; conditions: D6, 72 h
IGROV-1 = test: Growth inhibition of human IGROV1 cells after 48 hrs by sulforhodamine B assay; format: functional; conditions: IGROV-1, 48 h
MDA-N = test: Growth inhibition of human MDA-N cells after 48 hrs by sulforhodamine B assay; format: functional
SW-620 = test: Growth inhibition of human SW620 cells after 48 hrs by sulforhodamine B assay; format: functional; conditions: SW-620, 48 h
OVCAR-3 = test: Growth inhibition of human OVCAR-3 cells after 48 hrs by sulforhodamine B assay; format: functional; conditions: OVCAR-3, 48 h
HL-60 = test: Growth inhibition of human HL-60(TB) cells after 48 hrs by sulforhodamine B assay; format: functional; conditions: HL-60, 48 h
TK-10 = test: Growth inhibition of human TK10 cells after 48 hrs by sulforhodamine B assay; format: functional; conditions: TK-10, 48 h
DU-145 = test: Growth inhibition of human DU145 cells after 48 hrs by sulforhodamine B assay; format: functional; conditions: DU-145, 48 h
SK-MEL-2 = test: Growth inhibition of human SK-MEL-2 cells after 48 hrs by sulforhodamine B assay; format: functional; conditions: SK-MEL-2, 48 h
T47D = test: Growth inhibition of human T47D cells after 48 hrs by sulforhodamine B assay; format: functional
A549 = test: Growth inhibition of human A549 cells after 48 hrs by sulforhodamine B assay; format: functional; conditions: A549, 48 h
SK-MEL-5 = test: Growth inhibition of human SK-MEL-5 cells after 48 hrs by sulforhodamine B assay; format: functional; conditions: SK-MEL-5, 48 h
EKVX = test: Growth inhibition of human EKVX cells after 48 hrs by sulforhodamine B assay; format: functional
RXF 393 = test: Growth inhibition of human RXF393 cells after 48 hrs by sulforhodamine B assay; format: functional; conditions: RXF 393, 48 h
K562 = test: Growth inhibition of human K562 cells after 48 hrs by sulforhodamine B assay; format: functional; conditions: K562, 48 h
SN12C = test: Growth inhibition of human SN12C cells after 48 hrs by sulforhodamine B assay; format: functional
NCI/ADR-RES = test: Growth inhibition of human NCI/ADR-RES cells after 48 hrs by sulforhodamine B assay; format: functional
SF-295 = test: Growth inhibition of human SF295 cells after 48 hrs by sulforhodamine B assay; format: functional; conditions: SF-295, 48 h
HCT-116 = test: Growth inhibition of human HCT116 cells after 48 hrs by sulforhodamine B assay; format: functional; conditions: HCT-116, 48 h
M14 = test: Growth inhibition of human M14 cells after 48 hrs by sulforhodamine B assay; format: functional; conditions: M14, 48 h
CCRF-CEM = test: Growth inhibition of human CCRF-CEM cells after 48 hrs by sulforhodamine B assay; format: functional
U-251 = test: Growth inhibition of human U251 cells after 48 hrs by sulforhodamine B assay; format: functional; conditions: U-251, 48 h
A498 = test: Growth inhibition of human A498 cells after 48 hrs by sulforhodamine B assay; format: functional; conditions: A498, 48 h
MDA-MB-435 = test: Growth inhibition of human MDA-MB-435 cells after 48 hrs by sulforhodamine B assay; format: functional; conditions: MDA-MB-435, 48 h
UO-31 = test: Growth inhibition of human UO31 cells after 48 hrs by sulforhodamine B assay; format: functional; conditions: UO-31, 48 h
Malme-3M = test: Growth inhibition of human MALME-3M cells after 48 hrs by sulforhodamine B assay; format: functional
[6] = Growth inhibition of human […] cells after 48 hrs by sulforhodamine B assay; format: functional
NCI-H322M = test: Growth inhibition of human NCI-H322M cells after 48 hrs by sulforhodamine B assay; format: functional
SK-OV-3 = test: Growth inhibition of human SKOV3 cells after 48 hrs by sulforhodamine B assay; format: functional; conditions: SK-OV-3, 48 h
NCI-H522 = test: Growth inhibition of human NCI-H522 cells after 48 hrs by sulforhodamine B assay; format: functional; conditions: NCI-H522, 48 h
HCT-15 = test: Growth inhibition of human HCT15 cells after 48 hrs by sulforhodamine B assay; format: functional; conditions: HCT-15, 48 h
OVCAR-8 = test: Growth inhibition of human OVCAR8 cells after 48 hrs by sulforhodamine B assay; format: functional; conditions: OVCAR-8, 48 h
SF-268 = test: Growth inhibition of human SF268 cells after 48 hrs by sulforhodamine B assay; format: functional; conditions: SF-268, 48 h
MDA-MB-231 = test: Growth inhibition of human MDA-MB-231 cells after 48 hrs by sulforhodamine B assay; format: functional; conditions: MDA-MB-231, 48 h
[7] = Selectivity index, ratio of TC50 for african green monkey (Cercopithecus aethiops) Vero cells to IC50 for chloroquine-sensitive Plasmodium falciparum D6; format: toxicity, cell-based
KM12 = test: Growth inhibition of human KM12 cells after 48 hrs by sulforhodamine B assay; format: functional; conditions: KM12, 48 h
[8] = Growth inhibition of human Hs 578T cells after 48 hrs by sulforhodamine B assay; format: functional
SF-539 = test: Growth inhibition of human SF539 cells after 48 hrs by sulforhodamine B assay; format: functional; conditions: SF-539, 48 h
COLO 205 = test: Growth inhibition of human COLO205 cells after 48 hrs by sulforhodamine B assay; format: functional; conditions: COLO 205, 48 h
MOLT-4 = test: Growth inhibition of human MOLT4 cells after 48 hrs by sulforhodamine B assay; format: functional; conditions: MOLT-4, 48 h
OVCAR-5 = test: Growth inhibition of human OVCAR5 cells after 48 hrs by sulforhodamine B assay; format: functional; conditions: OVCAR-5, 48 h
MCF7 = test: Growth inhibition of human MCF7 cells after 48 hrs by sulforhodamine B assay; format: functional; conditions: MCF7, 48 h
SK-MEL-28 = test: Growth inhibition of human SK-MEL-28 cells after 48 hrs by sulforhodamine B assay; format: functional; conditions: SK-MEL-28, 48 h
PC-3 = test: Growth inhibition of human PC3 cells after 48 hrs by sulforhodamine B assay; format: functional; conditions: PC-3, 48 h
OVCAR-4 = test: Growth inhibition of human OVCAR4 cells after 48 hrs by sulforhodamine B assay; format: functional; conditions: OVCAR-4, 48 h
HCC 2998 = test: Growth inhibition of human HCC2998 cells after 48 hrs by sulforhodamine B assay; format: functional; conditions: HCC 2998, 48 h
[9] = Cytotoxicity against african green monkey Vero cells after 48 hrs by neutral red assay; format: cell-based; conditions: chlorocebus sabaeus, read-out: TC50
Plasmodium falciparum [10] = test: Antimalarial activity after 72 hrs against chloroquine-resistant Plasmodium falciparum W2 infected erythrocytes by LDH assay; format: functional, organism-based; conditions: W2, 72 h
SR = test: Growth inhibition of human SR cells after 48 hrs by sulforhodamine B assay; format: functional
HT-29 = test: Growth inhibition of human HT-29 cells after 48 hrs by sulforhodamine B assay; format: functional; conditions: HT-29, 48 h
NCI-H460 = test: Growth inhibition of human NCI-H460 cells after 48 hrs by sulforhodamine B assay; format: functional; conditions: NCI-H460, 48 h
CAKI-1 = test: Growth inhibition of human Caki1 cells after 48 hrs by sulforhodamine B assay; format: functional; conditions: CAKI-1, 48 h
UACC-62 = test: Growth inhibition of human UACC62 cells after 48 hrs by sulforhodamine B assay; format: functional; conditions: UACC-62, 48 h

With CO[C@@H]1[C@H](OC(=O)NC(=O)CCl)CC[C@]2(CO2)[C@H]1[C@@]1(C)O[C@@H]1CC=C(C)C [O-CHLOROACETYLCARBAMOYLFUMAGILLOL] as the molecule, how does the IC50 (HUVEC [1]) read?
Its IC50 is 500 nM.

What about the IC50 (HUVEC [2]) of the same molecule?
The IC50 was 1000 nM.

What about the IC50 (HUVEC [3]) of the same molecule?
Its IC50 is 3.16 µM.

What does the source list for C=C1[C@@H](OCCCO[C@H]2O[C@@H]3O[C@@]4(C)CC[C@H]5[C@H](C)CC[C@@H](C2=C)[C@@]35OO4)O[C@@H]2O[C@@]3(C)CC[C@H]4[C@H](C)CC[C@@H]1[C@@]24OO3?
GI50 (BT-549): 7.52 µM; GI50 (SNB-19): 11.1 µM; GI50 (HOP-92): 745 nM; GI50 (NCI-H23): 1070 nM; selectivity ratio [4]: > 159; GI50 (786-0): 346 nM; GI50 (ACHN): 6.38 µM; GI50 (UACC-257): 479 nM; GI50 (HOP-62): 6.88 µM; IC50 (Plasmodium falciparum [5]): 18.6 µM; GI50 (IGROV-1): 622 nM; GI50 (MDA-N): 518 nM; GI50 (SW-620): 62 nM; GI50 (OVCAR-3): 107 nM; GI50 (HL-60): 98 nM; GI50 (TK-10): 218 nM; GI50 (DU-145): 7.59 µM; GI50 (SK-MEL-2): 3.14 µM; GI50 (T47D): 14 nM; GI50 (A549): 5.33 µM; GI50 (SK-MEL-5): 496 nM; GI50 (EKVX): 476 nM; GI50 (RXF 393): 6.46 µM; GI50 (K562): 50 nM; GI50 (SN12C): 7.3 µM; GI50 (NCI/ADR-RES): 533 nM; GI50 (SF-295): 7.65 µM; GI50 (HCT-116): 27 nM; GI50 (M14): 205 nM; GI50 (CCRF-CEM): 97 nM; GI50 (U-251): 288 nM; GI50 (A498): > 50 µM; GI50 (MDA-MB-435): 443 nM; GI50 (UO-31): 181 nM; GI50 (Malme-3M): 7.28 µM; GI50 [6]: 13 nM; GI50 (NCI-H322M): 11.2 µM; GI50 (SK-OV-3): 10.9 µM; GI50 (NCI-H522): 401 nM; GI50 (HCT-15): 12 nM; GI50 (OVCAR-8): 372 nM; GI50 (SF-268): 6.29 µM; GI50 (MDA-MB-231): 13.1 µM; selectivity ratio [7]: > 43; GI50 (KM12): 94 nM; GI50 [8]: 74 nM; GI50 (SF-539): 5.34 µM; GI50 (COLO 205): 122 nM; GI50 (MOLT-4): 121 nM; GI50 (OVCAR-5): 5.04 µM; GI50 (MCF7): 150 nM; GI50 (SK-MEL-28): 6.07 µM; GI50 (PC-3): 63 nM; GI50 (OVCAR-4): 73 nM; GI50 (HCC 2998): 5.98 µM; CC50 at 48 h [9]: > 806 µM; IC50 (Plasmodium falciparum [10]): 5.1 µM; GI50 (SR): 28 nM; GI50 (HT-29): 43 nM; GI50 (NCI-H460): 5.44 µM; GI50 (CAKI-1): 1770 nM; GI50 (UACC-62): 7.2 µM
